According to patent publication US20180193274A1, “COMPOSITIONS FOR ILEO-JEJUNAL DRUG DELIVERY” (Principia Biopharma Inc., priority 2014, published 2018):
Read-outs that look alike come from different tables or passages of the source.

Tests used:
[1] = Pharmacokinetic experiment comparing oral gavage, intra-duodenal and intra-jejunal dosing in rats; type: in vivo, Wister-Hans rats
From the text: FIG. 1 depicts the results of a pharmacokinetic experiment comparing oral and intra-duodenal gavage dosing of (R)-2-(3-(4-amino-3-(2-fluoro-4-phenoxyphenyl)-1H-pyrazolo[3,4-d]pyrimidin-1-yl)piperidine-1-carbonyl)-4-methyl-4-(4-(oxetan-3-yl)piperazin-1-yl)pent-2-enenitrile having E/Z ratio of about 9:1. The area under the curve (AUC) and the Cmax are plotted.
(R)-2-(3-(4-amino-3-(2-fluoro-4-phenoxyphenyl)-1H-pyrazolo[3,4-d]pyrimidin-1-yl)piperidine-1-carbonyl)-4-methyl-4-(4-(oxetan-3-yl)piperazin-1-yl)pent-2-enenitrile was dosed in 10 mg/mL aqueous citrate solution at 20 mg/kg to Wister-Hans rats. Anhydrous citric acid (0.5 equivalents) was added to the free base of (R)-2-(3-(4-amino-3-(2-fluoro-4-phenoxyphenyl)-1H-pyrazolo[3,4-d]pyrimidin-1-yl)piperidine-1-carbonyl)-4-methyl-4-(4-(oxetan-3-yl)piperazin-1-yl)pent-2-enenitrile. The experiment was repeated 3 times each with 2 separate arms, and one oral gavage arm was included in each study. Intra-jejunal (IJ) and intra-duodenal dosing was done in cannulated rats. In the first study, there was a 40-fold increase in the AUC for the IJ-dosed group compared to the PO group, and the metabolite present in the IJ-group was reduced 10-fold.

[2] = cited from earlier work
[3] = 20 mg/kg, intra-duodenal vs oral, FIG. 1
[4] = 20 mg/kg, intra-jejunal vs oral, FIG. 1

AUC, ID dosing compared to PO dosing [1, 3] | Cmax, ID dosing compared to PO dosing [1, 3] | AUC, IJ dosing compared to PO dosing [1, 4] | Cmax, IJ dosing compared to PO dosing [1, 4] | increase in the AUC for the IJ-dosed group compared to the PO group ([1]; first study, 20 mg/kg in 10 mg/mL aqueous citrate solution, intra-jejunal vs oral gavage) [fold] | SMILES | bioavailability as determined by AUC ([2]; administered intraduodenally) [%] | bioavailability as determined by AUC ([2]; direct oral administration) [%]
increased | increased | substantially increased | substantially increased | 40 | CC(C)(C=C(C#N)C(=O)N1CCC[C@@H](n2nc(-c3ccc(Oc4ccccc4)cc3F)c3c(N)ncnc32)C1)N1CCN(C2COC2)CC1 [(R)-2-(3-(4-amino-3-(2-fluoro-4-phenoxyphenyl)-1H-pyrazolo[3,4-d]pyrimidin-1-yl)piperidine-1-carbonyl)-4-methyl-4-(4-(oxetan-3-yl)piperazin-1-yl)pent-2-enenitrile] |  | 
 |  |  |  |  | C=CC(=O)N1CCC[C@@H](n2nc(-c3ccc(Oc4ccccc4)cc3)c3c(N)ncnc32)C1 [ibrutinib, 1-[(3R)-3-[4-Amino-3-(4-phenoxyphenyl)-1H-pyrazolo[3,4-d]pyrimidin-1-yl]piperidin-1-yl]prop-2-en-1-one] | 100 | 21
